Measurements from article PMC6432629 (The Prostate, 2016).
Where two headings read alike, the source gives them in different places. Numbered stars: 1 amine (or outer) side, 2 acyl side, 3 side chain; on linkers, the order of the positions; unused ones are H or OH. Square brackets hold non-standard residues; d marks the D form. Peptide text beside a SMILES is read from it. * marks the point of attachment. Emetine(N2') = CC[C@H]1CN2CCc3cc(OC)c(OC)cc3[C@@H]2C[C@@H]1C[C@@H]1c2cc(OC)c(OC)cc2CCN1*; PABC = O=C(OCc1ccc(N[*:1])cc1)[*:2]

Experiments:
[1] = tested on: FAP/DPPIV activity in 10% FBS; assay: Inhibition of hydrolysis of 10 to emetine in 10% FBS by FAP inhibitor; format: biochemical, bovine; conditions: Ac-Gly-boroPro 200 μM added to 10% FBS containing media
FAP [2] = target: T1, FAP (Homo sapiens, UniProt Q12884); assay: FAP-mediated hydrolysis of prodrugs ex vivo; format: in vitro ADME; conditions: 37°C; for release of emetine on incubation with FAP (in words): FAP in FAP buffer / FAP containing media, LC-MS
T1 sequence (Q12884 27-760 limits assumed): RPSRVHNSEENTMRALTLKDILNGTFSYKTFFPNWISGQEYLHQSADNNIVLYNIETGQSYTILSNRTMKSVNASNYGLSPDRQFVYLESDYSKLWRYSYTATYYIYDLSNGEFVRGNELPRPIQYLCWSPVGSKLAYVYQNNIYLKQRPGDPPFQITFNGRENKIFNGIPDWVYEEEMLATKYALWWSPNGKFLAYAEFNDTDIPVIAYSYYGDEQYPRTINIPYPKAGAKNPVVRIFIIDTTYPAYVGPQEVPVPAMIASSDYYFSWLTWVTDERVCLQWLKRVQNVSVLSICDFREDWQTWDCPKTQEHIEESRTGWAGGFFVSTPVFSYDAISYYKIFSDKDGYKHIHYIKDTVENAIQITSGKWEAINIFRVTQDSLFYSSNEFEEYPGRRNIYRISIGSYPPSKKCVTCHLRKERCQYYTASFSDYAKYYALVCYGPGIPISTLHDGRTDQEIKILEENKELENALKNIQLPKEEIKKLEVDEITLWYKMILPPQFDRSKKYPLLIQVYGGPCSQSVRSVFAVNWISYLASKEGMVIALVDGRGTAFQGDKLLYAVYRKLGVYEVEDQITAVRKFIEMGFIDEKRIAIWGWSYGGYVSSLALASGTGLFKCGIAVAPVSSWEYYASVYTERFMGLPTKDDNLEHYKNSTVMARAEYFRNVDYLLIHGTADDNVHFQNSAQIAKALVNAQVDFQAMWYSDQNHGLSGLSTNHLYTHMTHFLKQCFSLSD

PC3 = assay: MTT cell proliferation; conditions: for cytotoxicity to PC3 (in words): exposure time not given; for IC50 fold higher than that of emetine, PC3: in FAP-containing FBS
LNCaP = assay: MTT cell proliferation; conditions: for cytotoxicity to LNCaP (in words): exposure time not given
MCF-7 = assay: MTT cell proliferation; conditions: for IC50: read-out: IC50 (nM) MCF-7
[3] = Hydrolysis of prodrugs in media with 10% FBS; format: in vitro ADME, bovine; conditions: for % emetine released, 10% FBS: RPMI media with 10% FBS, 500 μM compound, 1% DMSO, 24 hr, HPLC and MS
[4] = target: DPPIV (human recombinant CD26) (Homo sapiens, UniProt P27487); assay: DPPIV-mediated hydrolysis of prodrugs ex vivo; format: in vitro ADME
PrEC cells = assay: Cytotoxicity in normal prostatic epithelial cells in serum free media
[5] = Stability in serum free media; format: in vitro ADME; conditions: 37°C, 72 hr incubation
[6] = tested on: NCI 60 cancer cell screen; conditions: read-out: GI50 in NCI 60 cancer cell screen; no reference given; cited from earlier work
FAP [7] = assay: FAP buffer; conditions: 37°C, up to 24 hr
FAP and DPPIV = assay: mixture of purified FAP and DPPIV; conditions: 37°C, up to 24 hr
DPPIV = assay: FAP buffer; conditions: Human, 37°C, up to 48 hr
[8] = Table II, 3-day exposure, media containing 10% FBS, MTT
[9] = read-out: IC50 (nM) PC3, Table II, 3-day exposure, media containing 10% FBS, MTT
[10] = very high concentration, incubation up to 48 hr at 37°C, LC-MS
[11] = read-out: IC50 (nM) LNCaP, Table II, 3-day exposure, media containing 10% FBS, MTT
[12] = 3-day exposure, media with 10% FBS

DPPIV (human recombinant CD26), sequence (P27487 whole entry): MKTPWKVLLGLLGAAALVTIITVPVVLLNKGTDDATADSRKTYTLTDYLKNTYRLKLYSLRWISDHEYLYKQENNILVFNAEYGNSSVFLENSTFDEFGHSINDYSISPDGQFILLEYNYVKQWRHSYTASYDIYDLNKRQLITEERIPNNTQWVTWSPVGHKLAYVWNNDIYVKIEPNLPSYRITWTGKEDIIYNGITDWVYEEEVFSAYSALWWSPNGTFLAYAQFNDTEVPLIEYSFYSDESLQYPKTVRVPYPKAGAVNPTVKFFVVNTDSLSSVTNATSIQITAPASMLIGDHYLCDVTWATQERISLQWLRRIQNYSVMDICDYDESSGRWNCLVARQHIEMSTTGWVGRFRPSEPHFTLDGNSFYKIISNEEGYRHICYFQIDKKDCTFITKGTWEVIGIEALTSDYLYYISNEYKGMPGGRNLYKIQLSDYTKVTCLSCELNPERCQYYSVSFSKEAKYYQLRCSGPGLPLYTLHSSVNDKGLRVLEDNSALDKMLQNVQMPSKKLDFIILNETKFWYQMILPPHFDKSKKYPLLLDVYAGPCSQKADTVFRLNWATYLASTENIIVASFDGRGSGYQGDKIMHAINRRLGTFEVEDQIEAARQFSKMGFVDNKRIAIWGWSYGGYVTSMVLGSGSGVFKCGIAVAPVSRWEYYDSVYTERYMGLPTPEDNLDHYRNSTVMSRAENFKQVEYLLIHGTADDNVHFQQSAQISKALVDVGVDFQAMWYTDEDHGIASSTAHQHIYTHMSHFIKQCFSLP

CC(=O)NCC(=O)N1CCC[C@@H]1B(O)O [AcGBP, Ac-Gly-boroPro]
inhibition of release of emetine from 10 in 10% FBS, 2 hr ([1]; 2 hr): completely inhibited
decrease of release of emetine from 10 in 10% FBS, 24 hr ([1]; 24 hr): approximately 45%

CC[C@H]1CN2CCc3cc(OC)c(OC)cc3[C@@H]2C[C@@H]1C[C@@H]1c2cc(OC)c(OC)cc2CCN1C(=O)[C@@H]1CCCN1C(=O)CNC(=O)[C@H](C)NC(=O)[C@@H]1CCCN1C(=O)CNC(=O)[C@H](CO)NC(=O)[C@H](C)NC(C)=O [Compound 1] (Ac-ASGPAGP-{Emetine(N2')})
release of emetine on incubation with FAP (in words) (FAP [2]; 24 hr): did not release detectable amounts of emetine
cytotoxicity to PC3 (in words) (PC3; media with 10% FBS): not cytotoxic
cytotoxicity to LNCaP (in words) (LNCaP; media with 10% FBS): not cytotoxic

CC[C@H]1CN2CCc3cc(OC)c(OC)cc3[C@@H]2C[C@@H]1C[C@@H]1c2cc(OC)c(OC)cc2CCN1C(=O)OCc1ccc(NC(=O)[C@@H]2CCCN2C(=O)CNC(=O)[C@H](C)NC(=O)[C@@H]2CCCN2C(=O)CNC(=O)[C@H](CO)NC(=O)[C@H](C)NC(C)=O)cc1 [Compound 2] (Ac-ASGPAGP[PABC]-{Emetine(N2')})
release of emetine on incubation with FAP (in words) (FAP [2]; 24 hr): not cleaved by FAP containing media to release emetine
cytotoxicity to PC3 (in words) (PC3; media with 10% FBS): not cytotoxic
cytotoxicity to LNCaP (in words) (LNCaP; media with 10% FBS): not cytotoxic

CC[C@H]1CN2CCc3cc(OC)c(OC)cc3[C@@H]2C[C@@H]1C[C@@H]1c2cc(OC)c(OC)cc2CCN1C(=O)[C@H](C)NC(=O)[C@@H]1CCCN1C(=O)CNC(=O)[C@H](C)NC(=O)[C@@H]1CCCN1C(=O)CNC(=O)[C@H](CO)NC(=O)[C@H](C)NC(C)=O [Compound 3] (Ac-ASGPAGPA-{Emetine(N2')})
% cleavage to Ala-Gly-Pro-Ala-Emetine (FAP [2]; 24 hr incubation with FAP): 100%
release of emetine on incubation with FAP (in words) (FAP [2]; 24 hr): no further conversion to free emetine
IC50 fold higher than that of emetine, PC3 (PC3): more than 150 fold

CC[C@H]1CN2CCc3cc(OC)c(OC)cc3[C@@H]2C[C@@H]1C[C@@H]1c2cc(OC)c(OC)cc2CCN1C(=O)OCc1ccc(NC(=O)[C@H](C)NC(=O)[C@@H]2CCCN2C(=O)CNC(=O)[C@H](C)NC(=O)[C@@H]2CCCN2C(=O)CNC(=O)[C@H](CO)NC(=O)[C@H](C)NC(C)=O)cc1 [Compound 4] (Ac-ASGPAGPA[PABC]-{Emetine(N2')})
% Ala-Gly-Pro-Ala-PABC-Emetine (minor cleavage product) (FAP [2]; 24 hr incubation with FAP): 15%
% Ala-PABC-Emetine (major cleavage product) (FAP [2]; 24 hr incubation with FAP): 85%
release of emetine on incubation with FAP (in words) (FAP [2]; 24 hr): no further conversion to free emetine
IC50 fold higher than that of emetine, PC3 (PC3): more than 150 fold

CC[C@H]1CN2CCc3cc(OC)c(OC)cc3[C@@H]2C[C@@H]1C[C@@H]1c2cc(OC)c(OC)cc2CCN1C(=O)[C@@H]1CCCN1C(=O)[C@H](C)N [Compound 9]
cytotoxicity to MCF-7 (in words) (MCF-7; media with 10% FBS, exposure time not given): inactive compared to emetine
IC50 (MCF-7; [8]): > 10000 nM
cytotoxicity to PC3 (in words) (PC3; media with 10% FBS): inactive compared to emetine
IC50 (PC3; [9]): > 10000 nM
% emetine released, 10% FBS ([3]; 37°C): 0%
conversion to emetine in 10% FBS (in words) [3, 10]: not converted to emetine
conversion to emetine by purified DPPIV (in words) [4, 10]: not converted to emetine
cytotoxicity to LNCaP (in words) (LNCaP; media with 10% FBS): inactive compared to emetine
IC50 (LNCaP; [11]): 9520 nM

CC[C@H]1CN2CCc3cc(OC)c(OC)cc3[C@@H]2C[C@@H]1C[C@@H]1c2cc(OC)c(OC)cc2CCN1C(=O)OCc1ccc(NC(=O)[C@@H]2CCCN2C(=O)[C@H](C)N)cc1 [Compound 10, Ala-Pro-PABC-Emetine]
cytotoxicity / IC50 compared with emetine, MCF-7 (in words) (MCF-7; [12]): cytotoxicity comparable to that of emetine
IC50 (MCF-7; [8]): 38.4 ± 1.2 nM
cytotoxicity to PrEC (in words) (PrEC cells; 100 nM, 1-3 days exposure, serum free media lacking FAP and DPPIV): no observable cytotoxicity
stability in serum free media [5]: completely stable
% conversion to emetine by FAP, 24 hr (FAP [2]; purified recombinant FAP 300 nM, 24 hr): 36%
cytotoxicity / IC50 compared with emetine, PC3 (in words) (PC3; [12]): cytotoxicity comparable to that of emetine
IC50 (PC3; [9]): 37.2 ± 1.6 nM
% conversion to emetine in 10% FBS, 2 hr ([3]; 10% FBS media, 37°C, 2 hr): 10%
% emetine released, 10% FBS ([3]; 37°C): 78%
% conversion to emetine by purified DPPIV, 2 hr ([4]; 10 at 500 μM (Fig. 3 legend: 200 μM), DPPIV 30 nM, 37°C, 2 hr): 88%
cytotoxicity / IC50 compared with emetine, LNCaP (in words) (LNCaP; [12]): cytotoxicity comparable to that of emetine
IC50 (LNCaP; [11]): 38.2 ± 1 nM

CC[C@H]1CN2CCc3cc(OC)c(OC)cc3[C@@H]2C[C@@H]1C[C@H]1NCCc2cc(OC)c(OC)cc21 [Emetine, emetine]
IC50 (MCF-7; Homo sapiens, MCF7, 72 h): 35.8 ± 1.6 nM
percentage of viable cells relative to control, day 1 (PrEC cells; 100 nM, PrEC in serum free media lacking FAP and DPPIV, day 1): 80%
percentage of viable cells relative to control, day 2 (PrEC cells; 100 nM, PrEC in serum free media lacking FAP and DPPIV, day 2): 50%
percentage of viable cells relative to control, day 3 (PrEC cells; 100 nM, PrEC in serum free media lacking FAP and DPPIV, day 3): 10%
cytotoxicity to PrEC at 100 nM and 1,000 nM (in words) (PrEC cells; 3-day exposure, keratinocyte serum free media, no FAP or DPPIV): highly cytotoxic
IC50 (PrEC cells; Homo sapiens, PrEC, 72 h, read-out: calculated IC50 in the PrEC cell lines): 35.7 nM
GI50 [6]: 27 nM
IC50 (PC3; Homo sapiens, PC-3, 120 h, read-out: PC3 [IC50 (nM)]): 29.4 ± 3.2 nM
IC50 (LNCaP; Homo sapiens, LNCaP, 120 h, read-out: LNCaP [IC50 (nM)]): 31.6 ± 2.4 nM

Ac-Ala-Ser-Gly-Pro-Ala-Gly-Pro-Ala-Pro-PABC-Emetine
fragment found (FAP [7]): emetine
fragment found (FAP and DPPIV): emetine, 2 hr

Ala-Pro-PABC-Emetine
fragment found (DPPIV): emetine, 2 hr
fragment found (FAP [7]): emetine
